This assay concerns the target Factor D (Homo sapiens (Human), UniProt P00746). Nature of the assay: biochemical. The assay is classed as biochemical. The settings on record: read-out: IC50.

Among the data in patent US9085555B2, “Complement pathway modulators and uses thereof” (priority 2011, dated 2015) are IC50 values, retold here.

For orientation: IC50 means the concentration that inhibits the measured activity by half.

Sequence of Factor D (P00746 26-253): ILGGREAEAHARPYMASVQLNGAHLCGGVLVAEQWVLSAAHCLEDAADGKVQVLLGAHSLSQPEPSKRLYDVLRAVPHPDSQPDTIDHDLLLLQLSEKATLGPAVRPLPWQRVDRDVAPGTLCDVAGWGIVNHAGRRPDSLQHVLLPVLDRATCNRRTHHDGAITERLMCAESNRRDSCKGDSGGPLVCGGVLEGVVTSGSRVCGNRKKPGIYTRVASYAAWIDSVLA

`C[C@@]12C[C@@H](C(=O)Nc3cccc(Br)n3)N(C(=O)Cn3nc(C(N)=O)c4ccccc43)[C@@H]1C2` [Example 744, 1-{2-[(1R,3S,5R)-3-(6-Bromo-pyridin-2-ylcarbamoyl)-5-methyl-2-aza-bicyclo[3.1.0]hex-2-yl]-2-oxo-ethyl}-1H-indazole-3-carboxylic acid amide]: the IC50 was 4 nM. Consider `Cc1cc2c(C(N)=O)nn(CC(=O)N3[C@H](C(=O)Nc4cccc(Br)n4)C[C@@]4(C)C[C@@H]34)c2cn1` [Example 745, 1-{2-[(1R,3S,5R)-3-(6-Bromo-pyridin-2-ylcarbamoyl)-5-methyl-2-aza-bicyclo[3.1.0]hex-2-yl]-2-oxo-ethyl}-5-methyl-1H-pyrazolo[3,4-c]pyridine-3-carboxylic acid amide], for which the IC50 amounted to 5 nM.

Regarding `NC(=O)c1nn(CC(=O)N2C[C@H]3C[C@H]3[C@H]2C(=O)Nc2cccc(Br)n2)c2ccccc12` [Example 746, 1-{2-[(1R,2S,5S)-2-(6-Bromo-pyridin-2-ylcarbamoyl)-3-aza-bicyclo[3.1.0]hex-3-yl]-2-oxo-ethyl}-1H-indazole-3-carboxylic acid amide], the 50% inhibitory concentration (IC50) stood at 7 nM. As to `Cc1nccc2c(C(N)=O)nn(CC(=O)N3[C@@H]4C[C@@H]4C[C@H]3C(=O)Nc3cccc(Br)n3)c12` [Example 747, 1-{2-[(1R,3S,5R)-3-(6-Bromo-pyridin-2-ylcarbamoyl)-2-aza-bicyclo[3.1.0]hex-2-yl]-2-oxo-ethyl}-7-methyl-1H-pyrazolo [3,4-c]pyridine-3-carboxylic acid amide], the IC50 was determined as 13 nM. For the compound `CC(=O)c1nn(CC(=O)N2[C@@H]3C[C@@H]3C[C@H]2C(=O)Nc2cccc(Br)n2)c2ccc(OCc3ncccn3)cc12` [Example 748, (1R,3S,5R)-2-{2-[3-Acetyl-5-(pyrimidin-2-ylmethoxy)-indazol-1-yl]-acetyl}-2-aza-bicyclo[3.1.0]hexane-3-carboxylic acid (6-bromo-pyridin-2-yl)-amide], the IC50 was found to be 4 nM. In the case of `NC(=O)c1nn(CC(=O)N2[C@@H]3C[C@@H]3C[C@H]2C(=O)Nc2cccc(Br)n2)c2cc(Cl)ccc12` [Example 749, 1-{2-[(1R,3S,5R)-3-(6-Bromo-pyridin-2-ylcarbamoyl)-2-aza-bicyclo[3.1.0]hex-2-yl]-2-oxo-ethyl}-6-chloro-1H-indazole-3-carboxylic acid amide], the IC50 was 4 nM. Next, `CC(=O)c1cn(CC(=O)N2[C@@H]3C[C@@H]3C[C@H]2C(=O)Nc2cccc(Br)n2)c2ncccc12` [Example 750, (1R,3S,5R)-2-[2-(3-Acetyl-pyrrolo[2,3-b]pyridin-1-yl)-acetyl]-2-aza-bicyclo[3.1.0] hexane-3-carboxylic acid (6-bromo-pyridin-2-yl)-amide]: 34 nM; `CC(=O)c1cn(CC(=O)N2[C@@H]3C[C@@H]3C[C@H]2C(=O)Nc2cccc(Br)n2)c2ccncc12` [Example 751, (1R,3S,5R)-2-[2-(3-Acetyl-pyrrolo[3,2-c]pyridin-1-yl)-acetyl]-2-aza-bicyclo[3.1.0] hexane-3-carboxylic acid (6-bromo-pyridin-2-yl)-amide]: 81 nM.

Regarding `CC(=O)c1cn(CC(=O)N2[C@@H]3C[C@@H]3C[C@H]2C(=O)Nc2cccc(Br)n2)c2nnccc12` [Example 752, (1R,3S,5R)-2-[2-(5-Acetyl-pyrrolo[2,3-c]pyridazin-7-yl)-acetyl]-2-aza-bicyclo[3.1.0] hexane-3-carboxylic acid (6-bromo-pyridin-2-yl)-amide], the IC50 was 95 nM. In the case of `CO[C@H]1[C@@H](C(=O)Nc2cccc(Br)n2)N(C(=O)Cn2nc(C(N)=O)c3ccccc32)C[C@@H]1F` [Example 754, 1-{2-[(2S,3S,4S)-2-(6-Bromo-pyridin-2-ylcarbamoyl)-4-fluoro-3-methoxy-pyrrolidin-1-yl]-2-oxo-ethyl}-1H-indazole-3-carboxylic acid amide], the IC50 is 5 nM.
